Tests used:
Details in all cases: 72 h
[1] = system: myeloid leukemia patient primary cells Pat.8; assay: area under dose-response curve (viability, 1 nM-10 uM) (fraction (0-1)); higher = more sensitive
Procedure: (§1)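 AUC (0–1, higher = more sensitive) of the 5-point dose–response (1 nM–10 µM, 72 h, CellTiter-Glo) in primary AML/CML patient mononuclear cells. 0.030103 is the floor for inactive compounds.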

[2] = system: myeloid leukemia patient primary cells Pat.1; assay: as above
Procedure: as §1

[3] = system: myeloid leukemia patient primary cells Pat.14; assay: as above
Procedure: as §1

[4] = system: myeloid leukemia patient primary cells Pat.13; assay: as above
Procedure: as §1

[5] = system: myeloid leukemia patient primary cells Pat.2; assay: as above
Procedure: as §1

[6] = system: myeloid leukemia patient primary cells Pat.9; assay: as above
Procedure: as §1

[7] = system: myeloid leukemia patient primary cells Pat.11; assay: as above
Procedure: as §1

[8] = system: myeloid leukemia patient primary cells Pat.3; assay: as above
Procedure: as §1

[9] = system: myeloid leukemia patient primary cells Pat.5; assay: as above
Procedure: as §1

[10] = system: myeloid leukemia patient primary cells Pat.15; assay: as above
Procedure: as §1

[11] = system: myeloid leukemia patient primary cells Pat.12; assay: as above
Procedure: as §1

[12] = system: myeloid leukemia patient primary cells Pat.7; assay: as above
Procedure: as §1

[13] = system: myeloid leukemia patient primary cells Pat.6; assay: as above
Procedure: as §1

[14] = system: myeloid leukemia patient primary cells Pat.8; assay: cell viability (% survival relative to DMSO control); higher = less cytotoxic
Procedure, shortened: (§2)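 Where an area under the curve appears, it was computed with the drc and PharmacoGx R packages from log-logistic fits. Those fits used four parameters. The underlying viability data came from CellTiter-Glo after 72 h, normalised to DMSO and 10 μM proteasome-inhibitor wells, with thawed, Ficoll-purified AML or CML patient mononuclear cells at 10,000 cells/well in RPMI 1640 with 10% FBS on 384-well plates pre-printed with 70 compounds at five tenfold concentrations (1–10,000 nM) in duplicate.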

[15] = system: myeloid leukemia patient primary cells Pat.1; assay: as above
Procedure, shortened: as §2

[16] = system: myeloid leukemia patient primary cells Pat.14; assay: as above
Procedure, shortened: as §2

[17] = system: myeloid leukemia patient primary cells Pat.13; assay: as above
Procedure, shortened: as §2

[18] = system: myeloid leukemia patient primary cells Pat.10; assay: as above
Procedure, shortened: as §2

[19] = system: myeloid leukemia patient primary cells Pat.2; assay: as above
Procedure, shortened: as §2

[20] = system: myeloid leukemia patient primary cells Pat.9; assay: as above
Procedure, shortened: as §2

[21] = system: myeloid leukemia patient primary cells Pat.11; assay: as above
Procedure, shortened: as §2

[22] = system: myeloid leukemia patient primary cells Pat.3; assay: as above
Procedure, shortened: as §2

[23] = system: myeloid leukemia patient primary cells Pat.5; assay: as above
Procedure, shortened: as §2

[24] = system: myeloid leukemia patient primary cells Pat.15; assay: as above
Procedure, shortened: as §2

[25] = system: myeloid leukemia patient primary cells Pat.4; assay: as above
Procedure, shortened: as §2

[26] = system: myeloid leukemia patient primary cells Pat.12; assay: as above
Procedure, shortened: as §2

[27] = system: myeloid leukemia patient primary cells Pat.7; assay: as above
Procedure, shortened: as §2

[28] = system: myeloid leukemia patient primary cells Pat.6; assay: as above
Procedure, shortened: as §2

[29] = system: myeloid leukemia patient primary cells Pat.10; assay: area under dose-response curve (viability, 1 nM-10 uM) (fraction (0-1)); higher = more sensitive
Procedure: as §1

[30] = system: myeloid leukemia patient primary cells Pat.4; assay: as above
Procedure: as §1

SHI-1 [31] = assay: cell viability (% survival relative to DMSO control, bortezomib = 0%); higher = less cytotoxic
Procedure, shortened: (§3)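 After 72 h at 37 °C with 5% CO2, cell viability in 384-well plates was measured by CellTiter-Glo luminescence. The plates held compounds pre-printed at 1, 10, 100, 1000 or 10000 nM in duplicate, and cells from 10 AML and 5 CML lines seeded at densities titrated to linear growth. Percent survival is the duplicate mean, normalised to vehicle as 100% and a 10 µM positive control as 0%.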

HEL [32] = assay: as above
Procedure, shortened: as §3

NOMO-1 [33] = assay: as above
Procedure, shortened: as §3

ML-2 [34] = assay: as above
Procedure, shortened: as §3

BV-173 [35] = assay: as above
Procedure, shortened: as §3

K-562 [36] = assay: as above
Procedure, shortened: as §3

MOLM-13 [37] = assay: as above
Procedure, shortened: as §3

KG-1 [38] = assay: as above
Procedure, shortened: as §3

KU-812 [39] = assay: as above
Procedure, shortened: as §3

THP-1 [40] = assay: as above
Procedure, shortened: as §3

LAMA-84 [41] = assay: as above
Procedure, shortened: as §3

KCL-22 [42] = assay: as above
Procedure, shortened: as §3

HL-60 [43] = assay: as above
Procedure, shortened: as §3

Mono-Mac-6 [44] = assay: as above
Procedure, shortened: as §3

MV4-11 [45] = assay: as above
Procedure, shortened: as §3

SHI-1 [46] = system: SHI-1
Procedure, shortened: (§4)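 Fifteen myeloid leukaemia lines in RPMI 1640 were treated for 72 h at 37 °C and 5% CO2 with five tenfold doses from 1 to 10,000 nM, in duplicate. ATP luminescence was normalised to vehicle and to a positive control at 10 µM, then fitted with a four-parameter log-logistic model. The IC50 came from these fits.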

HEL [47] = system: HEL
Procedure, shortened: as §4

NOMO-1 [48] = system: NOMO-1
Procedure, shortened: as §4

ML-2 [49] = system: ML-2
Procedure, shortened: as §4

BV-173 [50] = system: BV-173
Procedure, shortened: as §4

K-562 [51] = system: K-562
Procedure, shortened: as §4

MOLM-13 [52] = system: MOLM-13
Procedure, shortened: as §4

KG-1 [53] = system: KG-1
Procedure, shortened: as §4

KU-812 [54] = system: KU-812
Procedure, shortened: as §4

THP-1 [55] = system: THP-1
Procedure, shortened: as §4

LAMA-84 [56] = system: LAMA-84
Procedure, shortened: as §4

KCL-22 [57] = system: KCL-22
Procedure, shortened: as §4

HL-60 [58] = system: HL-60
Procedure, shortened: as §4

Mono-Mac-6 [59] = system: Mono-Mac-6
Procedure, shortened: as §4

MV4-11 [60] = system: MV4-11
Procedure, shortened: as §4

CCn1c(=O)/c(=C2\Sc3ccccc3N2C)s/c1=C\c1cccc[n+]1CC.[Cl-] [MKT-077]
Details	area under dose-response curve
[1]	0.0466
[2]	< 0.0301
[3]	< 0.0301
[4]	0.0334
[5]	< 0.0301
[6]	0.0402
[7]	< 0.0301
[8]	< 0.0301
[9]	0.119
[10]	< 0.0301
[11]	< 0.0301
[12]	0.0538
[13]	0.0306

cell viability [%]
Details	1 nM	10 nM	100 nM	1000 nM	10000 nM
[14]	71.5	87.3	95.1	82.5	67.2
[15]	88.7	75.1	99.5	96.7	79.3
[16]	49.3	84.2	> 100	100	61.8
[17]	85.3	83.5	92.6	88.8	72.1
[18]	35.1	83.7	> 100	54.6	67.1
[19]	93.4	99.4	98.1	99.9	85.4
[20]	7.21	82.2	86.3	78.1	48
[21]	96.9	95.6	99.3	> 100	88.3
[22]	46.3	84.2	> 100	> 100	80.4
[23]	2.39	85	95.2	69.1	27.4
[24]	86.1	93.1	87.2	98.8	82.1
[25]	92.1	92.2	99.6	83.8	61.6
[26]	95.4	95.7	97	97.5	91.4
[27]	60.4	97.6	87.8	78.2	63.4
[28]	86.5	> 100	> 100	97.5	76.2

O=C(CCl)N(CCCNC(=O)C(F)(F)F)c1ccc([N+](=O)[O-])cc1 [ML-175]
Details	area under dose-response curve
[1]	0.192
[2]	0.149
[3]	0.488
[4]	0.19
[5]	0.147
[6]	0.593
[7]	0.199
[8]	0.498
[9]	0.744
[10]	0.159
[11]	0.221
[12]	0.533
[13]	0.204
[29]	0.542
[30]	0.29

cell viability [%]
Details	1 nM	10 nM	100 nM	1000 nM	10000 nM
[14]	87.1	89	85.1	65.8	0.0301
[15]	85.7	78.3	67.8	72.8	< 0
[16]	87.8	82.6	29.4	51.2	2.44
[17]	92.9	88.6	71.6	62.1	3.76
[18]	81.5	93.1	17.1	15.7	5.41
[19]	94.8	93.7	89.3	82.8	4.31
[20]	64.6	81.5	7.88	7.21	0.492
[21]	95.5	97	86.2	67.7	1.51
[22]	96.1	96.2	23.6	46.1	0.554
[23]	99.9	51.6	< 0	2.01	< 0
[24]	95	80.2	86.1	75.6	1.52
[25]	97.6	79.3	65.7	42.1	1.37
[26]	96.2	98.2	80.4	58.4	1.48
[27]	> 100	89.4	11.6	43.6	50
[28]	97.1	94.4	70.2	61.2	1.29

CC(C)(O)CNc1nc(Nc2ccnc(C(F)(F)F)c2)nc(-c2cccc(C(F)(F)F)n2)n1 [Enasidenib]
cell viability [%]
Details	1 nM	10 nM	100 nM	1000 nM	10000 nM
BV-173 [35]	101	90.7	121	98.4	90
HEL [32]	106	106	123	111	85.6
HL-60 [43]	118	108	118	99.1	106
K-562 [36]	93.1	98.3	98.3	95.2	82.5
KCL-22 [42]	89.2	102	113	97.4	93.6
KG-1 [38]	103	95	107	92.8	117
KU-812 [39]	92.4	97.2	103	90	93.2
LAMA-84 [41]	101	94.8	99.1	104	103
ML-2 [34]	109	100	113	97.3	68.8
MOLM-13 [37]	83.9	90.8	98.5	101	103
MV4-11 [45]	101	88.9	112	103	81.1
Mono-Mac-6 [44]	94.8	100	113	107	126
NOMO-1 [33]	98.3	98.8	107	93.6	92.9
SHI-1 [31]	109	105	114	113	109
THP-1 [40]	101	103	114	93.5	97.5

Details	IC50 (cell viability) [µM]
BV-173 [50]	> 10
HEL [47]	> 10
HL-60 [58]	> 10
K-562 [51]	> 10
KCL-22 [57]	> 10
KG-1 [53]	> 10
KU-812 [54]	> 10
LAMA-84 [56]	> 10
ML-2 [49]	> 10
MOLM-13 [52]	> 10
MV4-11 [60]	> 10
Mono-Mac-6 [59]	> 10
NOMO-1 [48]	> 10
SHI-1 [46]	> 10
THP-1 [55]	> 10
